{"source": "paper PMC12779026", "about": "“α-Glycosidase activity of novel coumarin–triazole–coumarin dyads” (Turkish Journal of Chemistry, 2025)", "key": {"α-glycosidase [1]": {"biological_target": "α-glycosidase", "experiment": "α-Glycosidase inhibitory assay (spectrophotometric, 4-pNPG substrate, 405 nm)", "format": "biochemical", "settings": "0.5 U/mL α-glycosidase, 5 mM 4-pNPG, phosphate buffer pH 6.9, compounds 5–250 μM", "protocol": "The α-glycosidase inhibitory effects of the compounds were determined as described in the previous study. Acarbose (Sigma-Aldrich, A8980) was used as a reference compound in this study. The compounds were first dissolved in 25 mM DMSO and then diluted to 1 mM with phosphate buffer (0.1 M, pH: 6.9). In brief, the compounds and acarbose in phosphate buffer (0.1 M, pH: 6.9) were added to a 96-well plate at 5–250 μM. Then, 100 μL, 0.5 U/mL α-glycosidase (Sigma-Aldrich, G5003) was added to the wells. After 10 min, 50 μL of 5 mM p-nitrophenyl-α-D-glucopyranoside (4-pNPG) (Sigma-Aldrich, 487506) was added as a substrate to each well. After incubation for 10 min, spectrophotometric measurement was performed at 405 nm. The percentage inhibition rate of the compounds was calculated using the following formula: […]\nIn this formula, A0 and A1 represent the absorbance of the mixture in the absence and presence of the compound, respectively. In addition, IC50 values, which indicate the […] required to inhibit half of the enzyme activity, were calculated."}, "α-glycosidase [2]": {"biological_target": "α-glycosidase", "experiment": "Kinetic analysis of α-glycosidase inhibition (Lineweaver–Burk and Dixon plots)", "format": "biochemical", "protocol": "To determine this, the final concentration of α-glycosidase was fixed at 0.5 U/mL. Then, different concentrations of 4-pNPG (2.5–20 mM) and varying concentrations of 4e (20 μM, 40 μM, and 100 μM) showing inhibitory potential were added to the wells. Following incubation, the absorbance values at 405 nm in the presence and absence of the compound were measured in the microplate reader. Lineweaver–Burk and Dixon plots were used to determine the inhibitor type and the inhibitory constant (Ki) of 4e. In the Lineweaver–Burk plot, the y-axis represents 1/V, the inverse of the reaction rate, while the x-axis represents 1/[S], the inverse of the substrate concentration. According to this plot, the points intersecting the y-axis give the value 1/Vmax. From here, the Vmax value, which represents the maximum reaction rate, can be determined. Km, a value indicating the enzyme’s interest in the substrate, can be determined from the points where the line intersects the x-axis. The type of inhibition is then determined by analyzing the changes in Vmax and Km. The Dixon graph is used to calculate the Ki value, which indicates the inhibitory potential of 4e."}}, "note": "Entries after “also recorded” stand apart in the source; their conditions may differ.", "data": [{"smiles": "Cc1c(O)ccc2c(Cn3cc(COc4ccc5cc(-c6ccccc6)c(=O)oc5c4)nn3)cc(=O)oc12", "note": "[4a, 7-Hydroxy-8-methyl-4-((4-(((2-oxo-3-phenyl-2H-chromen-7-yl)oxy)methyl)-1H-1,2,3-triazol-1-yl)methyl)-2H-chromen-2-one]", "values": [{"measurement": "IC50", "setting": "α-glycosidase [1]", "result": "95 ± 3.55", "unit": "µM"}]}, {"smiles": "Cc1ccc(-c2cc3ccc(OCc4cn(Cc5cc(=O)oc6c(C)c(O)ccc56)nn4)cc3oc2=O)cc1", "note": "[4b, 7-Hydroxy-8-methyl-4-((4-(((2-oxo-3-(p-tolyl)-2H-chromen-7-yl)oxy)methyl)-1H-1,2,3-triazol-1-yl)methyl)-2H-chromen-2-one]", "values": [{"measurement": "IC50", "setting": "α-glycosidase [1]", "result": "123 ± 4.2", "unit": "µM"}]}, {"smiles": "COc1ccc(-c2cc3ccc(OCc4cn(Cc5cc(=O)oc6c(C)c(O)ccc56)nn4)cc3oc2=O)cc1", "note": "[4c, 7-Hydroxy-4-((4-(((3-(4-methoxyphenyl)-2-oxo-2H-chromen-7-yl)oxy)methyl)-1H-1,2,3-triazol-1-yl)methyl)-8-methyl-2H-chromen-2-one]", "values": [{"measurement": "IC50", "setting": "α-glycosidase [1]", "result": "109 ± 2.4", "unit": "µM"}]}, {"smiles": "Cc1c(O)ccc2c(Cn3cc(COc4ccc5cc(-c6ccc(F)cc6)c(=O)oc5c4)nn3)cc(=O)oc12", "note": "[4d, 4-((4-(((3-(4-Fluorophenyl)-2-oxo-2H-chromen-7-yl)oxy)methyl)-1H-1,2,3-triazol-1-yl)methyl)-7-hydroxy-8-methyl-2H-chromen-2-one]", "values": [{"measurement": "IC50", "setting": "α-glycosidase [1]", "result": "93.5 ± 1.7", "unit": "µM"}]}, {"smiles": "Cc1c(O)ccc2c(Cn3cc(COc4ccc5cc(-c6ccc([N+](=O)[O-])cc6)c(=O)oc5c4)nn3)cc(=O)oc12", "note": "[4e, 7-Hydroxy-8-methyl-4-((4-(((3-(4-nitrophenyl)-2-oxo-2H-chromen-7-yl)oxy)methyl)-1H-1,2,3-triazol-1-yl)methyl)-2H-chromen-2-one]", "values": [{"measurement": "Ki", "setting": "α-glycosidase [2]; Dixon plot", "result": "19.95 ± 0.15", "unit": "µM"}, {"measurement": "Type (of inhibition)", "setting": "α-glycosidase [2]; Lineweaver–Burk plot, 4-pNPG 2.5–20 mM, 4e 20, 40, 100 μM", "result": "mixed type; also recorded: mixed inhibitor"}, {"measurement": "IC50", "setting": "α-glycosidase [1]", "result": "39 ± 0.77", "unit": "µM"}]}, {"smiles": "C[C@H]1O[C@H](O[C@H]2[C@H](O)[C@@H](O)[C@@H](O[C@H]3[C@H](O)[C@@H](O)C(O)O[C@@H]3CO)O[C@@H]2CO)[C@H](O)[C@@H](O)[C@@H]1N[C@H]1C=C(CO)[C@@H](O)[C@H](O)[C@H]1O", "note": "(some centres unmarked) [Acarbose, reference compound]", "values": [{"measurement": "IC50", "setting": "α-glycosidase [1]", "result": "64.5 ± 2.53", "unit": "µM"}]}]}
